Test results as given in BigSolDB 2.1.

O=C1NC(=O)C(c2ccccc2)(c2ccccc2)N1
solubility (mole fraction)
Conditions	293.2 K	298.2 K	303.2 K	308.2 K	313.2 K
in n-propanol	0.00263	0.00304	0.00329	0.00358	0.00396
in water	1.29e-06	2.11e-06	2.42e-06	2.64e-06	2.94e-06
